# Test results as given in patent US20050148763A1, “Peg-binding pth or peg-binding pth derivative” (Chugai Seiyaku Kabushiki Kaisha, priority 2002, published 2005).
# Key:
# human PTH1 receptors [1] = molecular target: T1, human PTH1 receptors (Homo sapiens, UniProt Q03431); assay: in vitro ability to produce cAMP, HKRK-B7 cells; format: cell-based; conditions: Table 2(1), n=2-3
# T1 construct: expressed in transfected cells; host or cells: HKRK-B7 and HKRK-B64 cells (derived from pig kidney LLC-PK1 cells)
# T1 sequence (Q03431 27-593): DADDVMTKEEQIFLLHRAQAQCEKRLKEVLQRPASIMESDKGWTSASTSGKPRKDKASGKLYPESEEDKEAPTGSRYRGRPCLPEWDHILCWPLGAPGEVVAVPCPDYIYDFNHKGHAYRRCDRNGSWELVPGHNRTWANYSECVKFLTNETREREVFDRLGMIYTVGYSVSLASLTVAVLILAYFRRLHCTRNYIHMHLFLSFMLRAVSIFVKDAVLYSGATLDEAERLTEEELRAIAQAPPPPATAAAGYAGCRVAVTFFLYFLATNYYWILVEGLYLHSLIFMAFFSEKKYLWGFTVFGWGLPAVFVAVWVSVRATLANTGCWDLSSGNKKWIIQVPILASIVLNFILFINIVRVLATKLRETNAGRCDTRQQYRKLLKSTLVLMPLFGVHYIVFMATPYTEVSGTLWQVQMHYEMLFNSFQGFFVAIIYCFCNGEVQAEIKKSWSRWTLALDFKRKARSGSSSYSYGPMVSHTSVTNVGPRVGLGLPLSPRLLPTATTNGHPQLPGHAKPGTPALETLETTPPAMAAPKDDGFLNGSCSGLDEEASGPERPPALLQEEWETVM
# Experimental: Each PEG-PTH sample was assayed for its ability to produce cAMP (indicative of the increasing effect of PTH on bone mass) as follows. […] These cells were seeded in 96-well plates at 1×10^5 cells/well and incubated overnight. […] After removing the reaction solution, the plates were placed on powdered dry ice to freeze the cells and then removed from the dry ice. The cells were thawed with 50 μL of 50 mM HCl and frozen again on dry ice. The level of intracellular cAMP was determined with a commercially available EIA kit (Biotrak cAMP EIA system, Amersham).
# human PTH1 receptors [2] = molecular target: T1, human PTH1 receptors; assay: in vitro ability to produce cAMP, HKRK-B64 cells; format: cell-based; conditions: Table 2(2), n=2-3
# Experimental: Each PEG-PTH sample was assayed for its ability to produce cAMP (indicative of the increasing effect of PTH on bone mass) as follows. HKRK-B7 and HKRK-B64 cells, genetically modified from pig kidney-derived LLC-PK1 cells to overexpress human PTH1 receptors at levels of about 1×10^6 and 9×10^4 receptors per cell, respectively, as well as EW29 cells expressing about 1.9×10^5 rat PTH1 receptors per cell (Takasu et al., J. Bone. Miner. Res. 14: 11-20, 1999) were grown in DMEM supplemented with 10% FBS, 1% penicillin and 1% streptomycin. These cells were seeded in 96-well plates at 1×10^5 cells/well and incubated overnight. On the following day, the cells were washed once with 200 μL binding buffer (50 mM Tris-HCl/100 mM NaCl/5 mM KCl/2 mM CaCl2/5% inactivated horse serum/0.5% inactivated bovine serum, pH 7.7), followed by addition of 100 μL cAMP assay buffer (DMEM/2 mM 3-isobutyl-1-methylxanthine/1 mg/mL bovine serum albumin/35 mM HEPES-NaOH, pH 7.4) on ice. […] After removing the reaction solution, the plates were placed on powdered dry ice to freeze the cells and then removed from the dry ice. The cells were thawed with 50 μL of 50 mM HCl and frozen again on dry ice. The level of intracellular cAMP was determined with a commercially available EIA kit (Biotrak cAMP EIA system, Amersham).
# [3] = Pharmacokinetics and bioavailability in rats by subcutaneous route; format: in vivo
# Experimental: Each sample was adjusted to 80 μg/mL by dilution with 25 mmol/L citrate-phosphate buffer (pH 5.0) containing 100 mmol/L NaCl and 0.05 vol % Tween 20 to give a solution for administration. Male SD rats at 6 weeks of age (CLEA Japan, Inc.) were provided for this experiment. Intravenous injection was performed on rats having polyethylene tubes (SP-31, Natsume Seisakusho Co., Ltd.) inserted into the femoral artery and vein. The solutions thus prepared were each administered at a dose of 1 mL/kg through a polyethylene tube inserted into the femoral vein, and blood was collected through a polyethylene tube inserted into the femoral artery before administration and at 5, 15, 30 and 45 minutes as well as 1, 2, 4, 6, 8 and 24 hours after administration. Subcutaneous administration was performed on rats having polyethylene tubes inserted into the femoral artery. The solutions prepared above were each subcutaneously administered at a dose of 1 mL/kg to the dorsal neck region of the rats, and blood was collected in the same manner as used for intravenous injection. These blood samples were centrifuged to collect plasma and stored at −40° C. until assayed for PTH(1-34) or PEG-PTH(1-34) levels.
# The level of PTH(1-34) or PEG-PTH(1-34) was determined by RIA analysis using a Rat PTH IRMA Kit (Immutopics). A Cobra Quantum Model 5005 gamma counter (Packard) was used to measure radioactivity for each sample. The plasma level of PTH(1-34) or PEG-PTH(1-34) was calculated from a calibration curve prepared using PTH(1-34) or PEG-PTH(1-34). The Winnonlin program Ver. 2.1 (Scientific Consulting Inc.) was used to analyze the time course of changes in the calculated plasma PTH(1-34) or PEG-PTH(1-34) levels (FIG. 3: by intravenous route; FIG. 4: by subcutaneous route) to calculate the following as pharmacokinetic parameters: time required to reach the maximum plasma level (Tmax); maximum plasma level (Cmax); area under the curve of plasma levels (AUC); plasma half-life (t1/2); total body clearance (Cltotal); mean residence time in the body (MRT); and bioavailability (BA). […]
# [4] = clinical, single subcutaneous 20-40 μg, at 4 to 6 hours after administration; cited from earlier work
Compound,Maximum cAMP response (human PTH1 receptors [1]),EC50 (human PTH1 receptors [1]; cAMP production),Maximum cAMP response (human PTH1 receptors [2]),EC50 (human PTH1 receptors [2]; cAMP production),"bioavailability ([3]; male, SD, rat, plasma, sc, 80 μg/kg, subcutaneous route, read-out: BA)","Cmax ([3]; rat, in vivo, sc, subcutaneous, 80 μg/mL at 1 mL/kg)","AUC ([3]; rat, in vivo, sc, subcutaneous, 80 μg/mL at 1 mL/kg, read-out: AUC)","MRT ([3]; rat, in vivo, sc, subcutaneous, 80 μg/mL at 1 mL/kg, read-out: MRT)","Tmax ([3]; rat, in vivo, sc, subcutaneous, 80 μg/mL at 1 mL/kg, read-out: Tmax)","half-life ([3]; rat, in vivo, sc, subcutaneous, 80 μg/mL at 1 mL/kg, read-out: t ½ (converted))",BA ([3]; subcutaneous route),blood calcium levels (in words) [4]
"2 k PEG-[Cys^35]-hPTH(1-35): [Cys^35]-PTH(1-35) conjugated with mPEG 2 k-MAL (2 kDa methoxy-PEG-maleimide) at the C-terminal cysteine (SVSEIQLMHNLGKHLNSMERVEWLRKKLQDVHNFC; Parathyroid hormone 2 kDa mPEG-maleimide at Cys35; UniProt P01270 32-66, looked up, variant V35C)",109.3 ± 10.1 pmol/well,0.5 nM,65.4 ± 19.4 pmol/well,0.6 nM,,,,,,,,
"CC[C@H](C)[C@H](NC(=O)[C@H](CCC(=O)O)NC(=O)[C@H](CO)NC(=O)[C@@H](NC(=O)[C@@H](N)CO)C(C)C)C(=O)N[C@@H](CCC(N)=O)C(=O)N[C@@H](CC(C)C)C(=O)N[C@@H](CCSC)C(=O)N[C@@H](Cc1cnc[nH]1)C(=O)N[C@@H](CC(N)=O)C(=O)N[C@@H](CC(C)C)C(=O)NCC(=O)N[C@@H](CCCCN)C(=O)N[C@@H](Cc1cnc[nH]1)C(=O)N[C@@H](CC(C)C)C(=O)N[C@@H](CC(N)=O)C(=O)N[C@@H](CO)C(=O)N[C@@H](CCSC)C(=O)N[C@@H](CCC(=O)O)C(=O)N[C@@H](CCCN=C(N)N)C(=O)N[C@H](C(=O)N[C@@H](CCC(=O)O)C(=O)N[C@@H](Cc1c[nH]c2ccccc12)C(=O)N[C@@H](CC(C)C)C(=O)N[C@@H](CCCN=C(N)N)C(=O)N[C@@H](CCCCN)C(=O)N[C@@H](CCCCN)C(=O)N[C@@H](CC(C)C)C(=O)N[C@@H](CCC(N)=O)C(=O)N[C@@H](CC(=O)O)C(=O)N[C@H](C(=O)N[C@@H](Cc1cnc[nH]1)C(=O)N[C@@H](CC(N)=O)C(=O)N[C@@H](Cc1ccccc1)C(=O)O)C(C)C)C(C)C [hPTH(1-34), reference compound]",,,,,13.6%,5.55 ng/mL,2.94 ng·h/mL,32.8 min,11.6 min,20.9 min,about 13.6%,transient elevation of blood calcium levels
